Marks after values point to notes of the source that are not given here.
Experiments:
[1] = system: citric acid induced cough in OVA sensitised guinea pigs; assay: Anti-tussive activity: citric acid induced cough in OVA sensitised guinea pigs (whole body plethysmograph); format: in vivo, guinea pig; details: for Number of coughs: 2 h before 15 min citric acid challenge, mean; for Anti-tussive effect (%): summary
Protocol: Animals—Male albino Dunkin-Hartley guinea pigs (350-550 g; Charles River WIGA GmbH, Sulzfeld, Germany) were used. The animals were housed in groups of 6 in solid floor cages and allowed free access to water and standard food. The guinea pigs were kept in rooms maintained at a constant temperature (22° C.±2° C.) and humidity (60%±15%), with a 12 h light cycle. The experiments were approved by the ethical committee Regierungspräsidium Tübingen, Germany.
OVA asthma model—On days 1 and 2, the guinea pigs were immunised by subcutaneous injection of 0.5 ml per animal of a solution of ovalbumin (OVA) (40 μg/ml) and aluminium hydroxide [Al (OH)3]. On day 14, these sensitised guinea pigs were challenged with OVA by exposure to an OVA aerosol (1.25 mg/ml) for 5 minutes, using a Dräger Inhalette® (Dräger Medical AG & Co. KgaA, Lübeck, Germany). 30 minutes prior to the challenge, pyrilamine maleate (2 mg/kg i.p.) was administered to protect the animals against bronchospasm. On day 15, the citric acid challenge was given to induce cough. 2 hours before the challenge, the test compound or vehicle (saline) was delivered by intratracheal (i.t.) administration (0.5 ml/kg) under anaesthesia with isoflurane (Forene®, Abbott GmbH and CO. KG, Wiesbaden, Germany).
Cough recording—Two hours after i.t. application, the citric acid challenge was performed. A whole body plethysmograph manufactured for guinea pigs (Buxco Research Systems, Wilmington, N.C., USA) was used for the experiments. Conscious animals were individually placed, unrestrained, into a whole body plethysmograph chamber. A solution of citric acid (0.4 M) was nebulised using the Aerosol Delivery System (Buxco) and administered to the animals at a rate of nebulisation of 0.18 ml/min for 15 min. During the challenge, airflow in the chamber was recorded by the Buxco system and analysed for the transient increase in airflow produced by cough, in which rapid inspiration is followed by rapid expiration. The system was able to distinguish coughs from other expiratory responses, and the number of coughs was counted.
Data analysis—Data from the treatment groups were compared with the vehicle group. Data are expressed as mean ±SEM of coughs produced by guinea pigs within each group during a 15 minutes citric acid aerosol exposure. Mean values were statistically analyzed by one-way analysis of variance (ANOVA) followed by the Dunnett's Multiple comparisons Test to evaluate significant differences between groups with p<0.05 being considered significant.

heart rate = assay: Side-effects: increase in heart rate after drug instillation
Protocol: In the following the heart rate is expressed as a percentage of the pre-value (heart beats per minute) preceding the drug administration. The increase in heart rate expressed in percent corresponds to the difference of heart rate between the vehicle group and the treated group recorded 20 minutes after drug instillation.

[2] = system: acetylcholine induced bronchoconstriction in guinea pigs; assay: Bronchoprotection: acetylcholine induced bronchospasm in anaesthetised guinea pigs (Konzett-Rössler); format: in vivo, guinea pig; details: for Bronchoconstriction (ml overflow): 2 h before acetylcholine 14 μg/kg i.v., mean; for bronchoprotective FED: first dose without side-effect displaying 80 to 100% efficacy
Protocol: Animal-Male and female Dunkin-Harley guinea pigs were obtained from the Experimental Animal Breeding Centre of Harlan Winkelmann (Germany). After fasting overnight, but with free access to drinking water, animals with body weight of 400-500 g are used. Anesthesia and preparation-The anesthesia was induced by intraperitoneal injection of 50 mg/kg pentobarbital. Anesthesia was prolonged by intravenous infusion of pentobarbital (15 mg/kg/h) via the jugular vein. A tracheal cannula was introduced after tracheotomy for artificial ventilation. The internal jugular vein was cannulated for acetylcholine injection. Instrumentation-Bronchospasm was recorded with a modified version of the method of Konzett-Röβler described by […] et al, 1997. […] Lung resistance was measured as ml of overflow and was recorded, amplified and saved under Notocord files (Notocord-hem, Notocord, France). Blood pressure and heart rate were monitored from a carotid artery in order to check the anesthesia and the variability of the preparation. Experimental protocol-2 hours before acetylcholine challenge, guinea pigs were given the test compound or its vehicle intra-tracheally under a slight isoflurane anesthesia. 30 minutes before acetylcholine challenge, lung resistance and blood pressure were measured under anesthesia. […] Data analysis-Data from the treatment groups were compared with the vehicle group. Data are expressed as mean ±SD of ml of overflow. […] Mean values were statistically analyzed by one-way analysis of variance (ANOVA) followed by the Dunnett's Multiple comparisons Test to evaluate significant differences between groups with p<0.05 being considered significant.

cough reflex = details: inhaled therapy in asthma, COPD or IPF; therapeutic doses; cited from earlier work
[3] = 1 μg/kg i.t., inhibition of acetylcholine bronchoconstriction
[4] = Dunkin-Hartley, guinea pig, in vivo, 20 min

COc1ccc2c3c1O[C@H]1[C@@H](O)C=C[C@H]4[C@@H](C2)N(C)CC[C@@]341 [Codeine]
Inhibition of cough (%) vs vehicle ([1]; 1 mg/kg i.t.): 17% | Number of coughs ([1]; 1 mg/kg i.t.): 20 | Inhibition of cough (%) vs vehicle ([1]; 3 mg/kg i.t.): 42 * % | Number of coughs ([1]; 3 mg/kg i.t.): 14 | Inhibition of cough (%) vs vehicle ([1]; 10 mg/kg i.t.): 58 * % | Number of coughs ([1]; 10 mg/kg i.t.): 10 | Inhibition of cough (%) vs vehicle ([1]; 30 mg/kg i.t.): 71 * % | Number of coughs ([1]; 30 mg/kg i.t.): 7

COc1ccc(CC(C)NCC(O)c2ccc(O)c(NC=O)c2)cc1 (stereo not drawn) [Formoterol]
increase in heart rate (heart rate; 10 μg/kg, 20 min after administration): 21% | Dose inducing side-effect (increase in heart rate) (heart rate; first dose increasing heart rate at least 10% vs vehicle, 20 min after administration): 10 µg/kg | Inhibition of cough (%) vs vehicle ([1]; 1 μg/kg i.t.): 0% | Number of coughs ([1]; 1 μg/kg i.t.): 26 | Inhibition of cough (%) vs vehicle ([1]; 3 μg/kg i.t.): 71 * % | Number of coughs ([1]; 3 μg/kg i.t.): 7 | Inhibition of cough (%) vs vehicle ([1]; 10 μg/kg i.t.): 58 * % | Number of coughs ([1]; 10 μg/kg i.t.): 10 | Anti-tussive effect (%) ([1]; 3 μg/kg): 71% | Anti-tussive effect (%) ([1]; 10 μg/kg): 58%

CCc1cc2c(cc1CC)CC(NC[C@H](O)c1ccc(O)c3[nH]c(=O)ccc13)C2 [Indacaterol]
Bronchoconstriction (ml overflow) ([2]; 1 μg/kg i.t.): 34 mL | Bronchoprotection (%) [2, 3]: 8% | Bronchoconstriction (ml overflow) ([2]; 3 μg/kg i.t.): 18 mL | Bronchoprotection (%) ([2]; 3 μg/kg i.t., inhibition of acetylcholine bronchoconstriction): 51 * % | Bronchoconstriction (ml overflow) ([2]; 10 μg/kg i.t.): 6 mL | Bronchoprotection (%) ([2]; 10 μg/kg i.t., inhibition of acetylcholine bronchoconstriction): 84 * % | Bronchoconstriction (ml overflow) ([2]; 30 μg/kg i.t.): 5 mL | Bronchoprotection (%) ([2]; 30 μg/kg i.t., inhibition of acetylcholine bronchoconstriction): 86 * % | ED50 ([2]; Cavia porcellus, inhaled or nasal, i.t.): 3 µg/kg | bronchoprotective FED [2]: 10 µg/kg | Bronchoprotection (%) ([2]; summary, 1 μg/kg): 8% | Bronchoprotection (%) ([2]; summary, 3 μg/kg): 51% | Bronchoprotection (%) ([2]; summary, 10 μg/kg): 84% | Bronchoprotection (%) ([2]; summary, 30 μg/kg): 86% | Dose inducing side-effect (increase in heart rate) (heart rate; [4]): 100 µg/kg | ratio dose inducing side-effect/bronchoprotective FED (heart rate; guinea pig, in vivo, 20 min): 10 | safety margin, times less than for Olodaterol (heart rate; guinea pig, in vivo, 20 min): 10 | Inhibition of cough (%) vs vehicle ([1]; 3 μg/kg i.t.): 0% | Number of coughs ([1]; 3 μg/kg i.t.): 26 | Inhibition of cough (%) vs vehicle ([1]; 10 μg/kg i.t.): 0% | Number of coughs ([1]; 10 μg/kg i.t.): 32 | Inhibition of cough (%) vs vehicle ([1]; 30 μg/kg i.t.): 0% | Number of coughs ([1]; 30 μg/kg i.t.): 38 | Anti-tussive effect (%) ([1]; 3 μg/kg): 0% | Anti-tussive effect (%) ([1]; 10 μg/kg): 0% | Anti-tussive effect (%) ([1]; 30 μg/kg): 0%

COc1ccc(CC(C)(C)NC[C@H](O)c2cc(O)cc3c2OCC(=O)N3)cc1 [Olodaterol]
Bronchoconstriction (ml overflow) ([2]; 0.01 μg/kg i.t.): 25 mL | Bronchoprotection (%) ([2]; 0.01 μg/kg i.t., inhibition of acetylcholine bronchoconstriction): 32% | Bronchoconstriction (ml overflow) ([2]; 0.03 μg/kg i.t.): 14 mL | Bronchoprotection (%) ([2]; 0.03 μg/kg i.t., inhibition of acetylcholine bronchoconstriction): 62 * % | Bronchoconstriction (ml overflow) ([2]; 0.1 μg/kg i.t.): 8 mL | Bronchoprotection (%) ([2]; 0.1 μg/kg i.t., inhibition of acetylcholine bronchoconstriction): 78 * % | Bronchoconstriction (ml overflow) ([2]; 0.3 μg/kg i.t.): 4 mL | Bronchoprotection (%) ([2]; 0.3 μg/kg i.t., inhibition of acetylcholine bronchoconstriction): 89 * % | Bronchoconstriction (ml overflow) ([2]; 1 μg/kg i.t.): 2 mL | Bronchoprotection (%) [2, 3]: 95 * % | bronchoprotective FED [2]: 0.3 µg/kg | minimum effective dose for bronchoprotection ([2]; i.t.): 0.01 µg/kg | Bronchoprotection (%) ([2]; summary, 0.01 μg/kg): 32% | Bronchoprotection (%) ([2]; summary, 0.03 μg/kg): 62% | Bronchoprotection (%) ([2]; summary, 0.1 μg/kg): 78% | Bronchoprotection (%) ([2]; summary, 0.3 μg/kg): 89% | Bronchoprotection (%) ([2]; summary, 1 μg/kg): 95% | Dose inducing side-effect (increase in heart rate) (heart rate; [4]): 30 µg/kg | ratio dose inducing side-effect/antitussive FED (heart rate; [4]): 300 | ratio dose inducing side-effect/bronchoprotective FED (heart rate; [4]): 100 | addiction or arrhythmia (heart rate; in vivo): no addiction or arrhythmia | Inhibition of cough (%) vs vehicle ([1]; 0.01 μg/kg i.t.): 33% | Number of coughs ([1]; 0.01 μg/kg i.t.): 16 | Inhibition of cough (%) vs vehicle ([1]; 0.03 μg/kg i.t.): 58 * % | Number of coughs ([1]; 0.03 μg/kg i.t.): 10 | Inhibition of cough (%) vs vehicle ([1]; 0.1 μg/kg i.t.): 79 * % | Number of coughs ([1]; 0.1 μg/kg i.t.): 5 | Inhibition of cough (%) vs vehicle ([1]; 0.3 μg/kg i.t.): 79 * % | Number of coughs ([1]; 0.3 μg/kg i.t.): 5 | Inhibition of cough (%) vs vehicle ([1]; 1 μg/kg i.t.): 75 * % | Number of coughs ([1]; 1 μg/kg i.t.): 6 | Inhibition of cough (%) vs vehicle ([1]; 3 μg/kg i.t.): 79 * % | Number of coughs ([1]; 3 μg/kg i.t.): 5 | antitussive Fully Effective Dose (FED) ([1]; first dose without side-effect displaying 70 to 80% efficacy): 0.1 µg/kg | Anti-tussive effect (%) ([1]; 0.01 μg/kg): 33% | Anti-tussive effect (%) ([1]; 0.03 μg/kg): 58% | Anti-tussive effect (%) ([1]; 0.1 μg/kg): 79% | Anti-tussive effect (%) ([1]; 0.3 μg/kg): 79% | Anti-tussive effect (%) ([1]; 1 μg/kg): 75%

OCc1cc(C(O)CNCCCCCCOCCCCc2ccccc2)ccc1O (stereo not drawn) [Salmeterol]
effect on cough reflex (cough reflex): display anti-tussive effect
